The target of one data set is T1, NaV1.8 (Homo sapiens, UniProt Q9Y5Y9).
T1 construct: expressed in transfected cells
The experiment in a line: Whole-cell patch clamp blocking activity against NaV1.8 channel current. Conditions: for IC50: CHO cell line stably expressing Nav1.8 (SCN10A: NM_006514), patch clamp; for Blocking rate (%) @100 nM: against NaV1.8 at 100 nM, CHO cell line stably expressing Nav1.8, patch clamp. The format is cell-based. The method, then:
1. Test method: patch clamp technique was used to detect the influence of compounds on voltage-gated sodium channel (NaV) 1.1-1.8 subtype current
1) The specific information of the CHO cell line stably expressing the Nav1.8 channel was as follows: SCN10A: NM_006514
2) Cells were cultured in HAM'S/F-12 medium containing 10% fetal bovine serum and 10 μg/mL Blasticidin, 200 μg/mL Hygromycin B and 100 μg/mL Zeocin, culture temperature was 37° C. and the concentration of CO2 was 5%.
5) Patch clamp detection, before the experiment, the cells were separated with 0.25%—trypsin EDTA, inoculated into a 24 well plate with a density of 8*10^3 cells per well (final volume: 500 μL), tetracycline was added thereto, and experimental test was performed on the next day.
1) Extracellular fluid: 140 mM NaCl, 3.5 mM KCl, 2 mM CaCl2, 10 mM HEPES, 1.25 mM NaH2PO4, 1 mM MgCl2, 10 mM Glucose, pH=7.4 (NaOH).
2) Intracellular fluid: 50 mM CsCl, 10 mM NaCl, 10 mM HEPES, 20 mM EGTA, 60 mM CsF, pH=7.2 (CsOH).
The voltage stimulation scheme of whole-cell patch clamp recording of Nav channel current was as follows: first the membrane potential of the cell was clamped at −130 mV, and then the voltage was stepped to −40 mV or −20 mV at 10 mv step intervals for 8 s. The clamping voltage was maintained at −120 mV, and data was collected repeatedly every 20 seconds. The peak amplitude of its inward current was measured to determine its half-inactivation voltage.
The cell clamping potential was set at −120 mV. The resting and half-inactivation inhibition of sodium current was measured using double pulse mode. The double pulse mode was completed by two 0 mV depolarization test pulses (TP1 and TP2) lasting 50 ms. The conditional voltage between the two depolarization pulses was set near the half-inactivation voltage (lasting 8 s). […] The data acquisition was repeated at an interval of 20 s and the current peak was measured at the two test pulses.
When the current of the Nav channel recorded by the whole cell was stable, the drug was administered, after each drug concentration was applied for 5 minutes (or the current was stable), the next concentration would be tested, and multiple concentrations would be tested for each test compound. The cover glass covered with cells was placed in the recording bath of an inverted microscope, the test compound and the external liquid without compound flowed through the recording chambers in turns from low concentration to high concentration by gravity perfusion, so as to act on the cells, in the recording, the liquid exchange was carried out by vacuum pump. The current detected in each cell in the compound-free external fluid served as its own control group. Multiple cells were detected independently and repeatedly. All electrophysiological experiments were performed at room temperature.
First, the current after the action of each drug concentration and the blank control current were normalized, and then the blocking rate corresponding to each drug concentration was calculated. The mean and standard error were calculated for each concentration, and all the above values were calculated by Microsoft Excel 2013. In addition, the half-inhibitory concentration of each compound was calculated by IGOR software with the following equation: retardation rate=1/[1+(IC50/c)^h].
The dose-dependent effect was nonlinearly fitted with the above equation, wherein, c refers to the drug concentration, IC50 was the half inhibitory concentration, and h refers to the Hill coefficient. The curve fitting and the calculation of IC50 were completed by IGOR software (software version: 6.0.1.0).

Data set [1] is described as follows: In vivo pharmacokinetics of rat, single intravenous injection or oral administration by gavage. Details: species or system Male Sprague Dawley rats. To be noted: male, Sprague-Dawley, plasma; for Vd: read-out: VZ; for bioavailability: intragastric (gavage) 10 mg/kg vs intravenous 1 mg/kg. The method, then: In this experimental embodiment, the in vivo pharmacokinetics of rat was evaluated by a single intravenous injection or oral administration by gavage.
Experimental methods and conditions: Male Sprague Dawley rats, all animals were fasted overnight, and the test compound was given 1 mg/Kg (intravenous injection, solvent […]) and 10 mg/Kg (administrated by gavage) respectively, 5, 15, 30 min, 1, 2, 4, 6, 8 and 24 hr after administration, blood was collected through the submandibular vein, about 0.20 mL of each sample was collected, heparin sodium was used for anticoagulation, the samples were placed on ice after the collection, then centrifuged within 1 hour to separate the plasma for testing. The blood drug concentration in plasma was detected by liquid-phase tandem mass spectrometry (LC/MS/MS), and the pharmacokinetic parameters were calculated by the measured concentration.

The mark [2] stands for this setting: intravenous administration 1 mg/kg.
The mark [3] stands for this setting: po, intragastric (gavage) 10 mg/kg.

T1 sequence (Q9Y5Y9 whole entry): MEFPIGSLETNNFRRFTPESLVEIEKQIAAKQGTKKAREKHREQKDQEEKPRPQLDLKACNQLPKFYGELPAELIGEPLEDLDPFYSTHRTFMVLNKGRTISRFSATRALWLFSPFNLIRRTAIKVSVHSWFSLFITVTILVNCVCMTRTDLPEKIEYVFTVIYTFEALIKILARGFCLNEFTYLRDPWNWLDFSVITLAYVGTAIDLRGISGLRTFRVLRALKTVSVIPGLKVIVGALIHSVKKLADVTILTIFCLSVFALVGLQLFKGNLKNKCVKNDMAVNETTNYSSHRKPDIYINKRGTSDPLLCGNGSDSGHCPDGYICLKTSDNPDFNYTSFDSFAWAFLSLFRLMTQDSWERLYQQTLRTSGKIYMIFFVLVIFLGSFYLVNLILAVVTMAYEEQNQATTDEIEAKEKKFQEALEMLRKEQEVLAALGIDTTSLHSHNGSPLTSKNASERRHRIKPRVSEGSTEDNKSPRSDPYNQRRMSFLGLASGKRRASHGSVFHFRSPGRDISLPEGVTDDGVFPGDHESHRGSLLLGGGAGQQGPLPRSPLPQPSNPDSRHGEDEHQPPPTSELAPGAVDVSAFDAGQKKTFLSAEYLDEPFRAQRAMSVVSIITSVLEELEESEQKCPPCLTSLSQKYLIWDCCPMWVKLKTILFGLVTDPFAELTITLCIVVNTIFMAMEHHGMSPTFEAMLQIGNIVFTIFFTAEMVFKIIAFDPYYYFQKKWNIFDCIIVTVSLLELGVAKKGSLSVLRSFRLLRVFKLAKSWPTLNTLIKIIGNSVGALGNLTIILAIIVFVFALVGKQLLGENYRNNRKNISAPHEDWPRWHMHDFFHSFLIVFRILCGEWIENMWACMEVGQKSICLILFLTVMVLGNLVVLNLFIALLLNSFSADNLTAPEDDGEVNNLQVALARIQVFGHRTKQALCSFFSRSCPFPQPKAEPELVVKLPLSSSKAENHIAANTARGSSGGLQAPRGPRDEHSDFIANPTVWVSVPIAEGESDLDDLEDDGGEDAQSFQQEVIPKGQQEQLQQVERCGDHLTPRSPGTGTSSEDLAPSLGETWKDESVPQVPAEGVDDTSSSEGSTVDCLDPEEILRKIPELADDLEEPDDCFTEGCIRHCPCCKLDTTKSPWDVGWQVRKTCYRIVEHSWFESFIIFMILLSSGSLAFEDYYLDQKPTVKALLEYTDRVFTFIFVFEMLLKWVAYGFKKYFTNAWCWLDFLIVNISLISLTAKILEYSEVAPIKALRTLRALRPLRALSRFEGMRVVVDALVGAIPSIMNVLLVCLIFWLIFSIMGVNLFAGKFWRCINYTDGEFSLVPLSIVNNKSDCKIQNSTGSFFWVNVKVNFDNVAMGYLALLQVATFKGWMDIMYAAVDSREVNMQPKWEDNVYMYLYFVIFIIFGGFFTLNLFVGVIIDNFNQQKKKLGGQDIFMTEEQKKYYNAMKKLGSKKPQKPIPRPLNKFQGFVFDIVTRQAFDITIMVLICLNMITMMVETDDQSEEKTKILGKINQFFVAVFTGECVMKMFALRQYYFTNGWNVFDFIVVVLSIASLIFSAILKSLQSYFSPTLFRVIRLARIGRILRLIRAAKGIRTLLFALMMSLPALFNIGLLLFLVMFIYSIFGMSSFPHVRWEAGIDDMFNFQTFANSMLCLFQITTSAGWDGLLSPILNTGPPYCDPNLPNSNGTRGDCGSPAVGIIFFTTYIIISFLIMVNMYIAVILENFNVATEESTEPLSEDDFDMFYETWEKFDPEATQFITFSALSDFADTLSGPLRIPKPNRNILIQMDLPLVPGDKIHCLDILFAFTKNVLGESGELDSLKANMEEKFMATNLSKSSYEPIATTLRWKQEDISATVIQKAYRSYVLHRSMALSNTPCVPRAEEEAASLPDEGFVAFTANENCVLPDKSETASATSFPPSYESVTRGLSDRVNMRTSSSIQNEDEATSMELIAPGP

As to `O=C(Nc1ccc[n+]([O-])c1)c1cc(Cl)c(Cl)cc1Oc1ccc(OC(F)(F)F)cc1` [Embodiment A11], the IC50 against NaV1.8 is 6.2 nM. In data set [1] (setting [2]), the AUC(0-inf) is 1.46 µg·h/mL, the clearance stood at 11.4 mL/min/kg, the half-life was 0.7 h and the Vd was found to be 0.699 L/kg. In data set [1] (setting [3]), this molecule showed an AUC(0-inf) of 10.6 µg·h/mL, a Cmax of 1330 ng/mL and a half-life of 2.51 h. Further, in data set [1] (po), the bioavailability is 72.6%.

As to `O=C(Nc1cc[n+](O)nc1)c1c(Oc2ccc(OC(F)(F)F)cc2)ccc(C(F)(F)F)c1F` [Embodiment A46], half-maximal inhibition on NaV1.8 (IC50) was put at 3.1 nM. For the same molecule, in data set [1] (setting [2]), the AUC(0-inf) came to 15.6 µg·h/mL, the clearance worked out at 1.08 mL/min/kg, the half-life is 20.1 h and the Vd came to 1.85 L/kg. In data set [1] (setting [3]), this molecule showed an AUC(0-inf) of 2930 µg·h/mL, a Cmax of 2060 ng/mL and a half-life of 915 h. Also, in data set [1] (po), the bioavailability turned out to be 46.8%.

At NaV1.8, `O=C(Nc1cc[n+]([O-])nc1)c1c(Oc2ccc(OC(F)(F)F)c(F)c2)ccc(C(F)(F)F)c1F` [Embodiment A56] gave an IC50 of 3.7 nM. Besides, in data set [1] (setting [2]), the AUC(0-inf) turned out to be 9.6 µg·h/mL, the clearance was 1.74 mL/min/kg, the half-life was 13.1 h and the Vd was determined as 1.97 L/kg. Further, in data set [1] (setting [3]), the AUC(0-inf) was determined as 117 µg·h/mL, the Cmax was 3000 ng/mL and the half-life is 27.9 h. This molecule yielded a bioavailability in data set [1] (po) of 68.2%.

With `O=C(Nc1ccc[n+]([O-])c1)c1c(Oc2ccc(OC(F)(F)F)cc2)cc(C(F)(F)F)c(Cl)c1F` [Embodiment A68], at NaV1.8, the IC50 was 0.27 nM and the “Blocking rate (%) @100 nM” value amounted to 99.15%. In data set [1] (setting [2]), the AUC(0-inf) amounted to 33.3 µg·h/mL, the clearance stood at 0.5 mL/min/kg, the half-life was 5.24 h and the Vd came out at 0.228 L/kg. In data set [1] (setting [3]), this molecule had an AUC(0-inf) of 139 µg·h/mL, a Cmax of 9700 ng/mL and a half-life of 5.72 h. The molecule further showed a bioavailability in data set [1] (po) of 41.8%.

In turn, `O=C(Nc1ccc[n+]([O-])c1)c1cc(Cl)c(C(F)(F)F)cc1Oc1ccc(OC(F)(F)F)cc1` [Embodiment A69] displayed an IC50 against NaV1.8 of 2 nM. Besides, in data set [1] (setting [2]), the AUC(0-inf) came out at 56.7 µg·h/mL, the clearance was found to be 0.3 mL/min/kg, the half-life is 12.3 h and the Vd worked out at 0.312 L/kg. Besides, in data set [1] (setting [3]), the AUC(0-inf) amounted to 399 µg·h/mL, the Cmax came to 17100 ng/mL and the half-life was 12.2 h. Further, in data set [1] (po), the bioavailability turned out to be 70.4%.

In the case of `O=C(Nc1ccc[n+]([O-])c1)c1c(Oc2ccc(OC(F)(F)F)c(F)c2)cc(C(F)(F)F)c(Cl)c1F` [Embodiment A84], the “Blocking rate (%) @100 nM” value on NaV1.8 stood at 99.14%. Further, in data set [1] (setting [2]), the total exposure AUC(0-inf) was 18.8 µg·h/mL, the clearance came out at 0.91 mL/min/kg, the half-life is 4.53 h and the Vd turned out to be 0.355 L/kg. In data set [1] (setting [3]), the AUC(0-inf) amounted to 67.2 µg·h/mL, the concentration peaked (Cmax) at 4920 ng/mL and the half-life was 5.75 h. Moreover, the bioavailability in data set [1] (po) is 35.7%.

For `COc1cc(F)ccc1Oc1cc(C(F)(F)F)c(Cl)c(F)c1C(=O)Nc1ccc[n+]([O-])c1` [Embodiment A86], inhibition at NaV1.8 was half-maximal at 0.08 nM (IC50).

Take `Cc1cc(Oc2ccc(OC(F)(F)F)cc2)c(C(=O)Nc2ccc[n+]([O-])c2)cc1C(F)(F)F` [Embodiment A90]: the “Blocking rate (%) @100 nM” value on NaV1.8 is listed as 89.50%.

Regarding `O=C(Nc1ccc[n+]([O-])c1)c1cc(Cl)c(OC(F)(F)F)cc1Oc1ccc(OC(F)(F)F)cc1` [Embodiment A91], the “Blocking rate (%) @100 nM” value at NaV1.8 was found to be 92.81%.

In the case of `Cc1cc(Oc2ccc(OC(F)(F)F)cc2)c(C(=O)Nc2ccc[n+]([O-])c2)cc1Cl` [Embodiment A92], on NaV1.8, the “Blocking rate (%) @100 nM” value is given as 85.44%.

On to `O=C(Nc1ccc[n+]([O-])c1)c1cc(Cl)c(C2CC2)cc1Oc1ccc(OC(F)(F)F)cc1` [Embodiment A95], for which, at NaV1.8, the “Blocking rate (%) @100 nM” value was 93.84%.

Consider `O=C(Nc1ccc[n+]([O-])c1)c1cc(Cl)c(Br)cc1Oc1ccc(OC(F)(F)F)cc1` [Embodiment A96], for which the “Blocking rate (%) @100 nM” value at NaV1.8 came to 88.78%.

Consider `O=C(Nc1ccc[n+]([O-])c1)c1cc(C(F)(F)F)c(C2CC2)cc1Oc1ccc(OC(F)(F)F)cc1` [Embodiment A97], for which the “Blocking rate (%) @100 nM” value at NaV1.8 was 86.65%.

Take `O=C(Nc1ccc[n+]([O-])c1)c1c(Oc2ccc(OC(F)(F)F)cc2)ccc(CC2CC2)c1F` [Embodiment A98]: on NaV1.8, the “Blocking rate (%) @100 nM” value was 95.70%.

Consider `O=C(Nc1cc[n+]([O-])cc1)c1c(Oc2ccc(OC(F)(F)F)cc2)cc(Cl)c(Cl)c1F` [Embodiment A100], for which the “Blocking rate (%) @100 nM” value at NaV1.8 came out at 97.60%.

Consider `O=C(Nc1ccc[n+]([O-])c1)c1c(Oc2ccc(OCC(F)(F)F)cc2)cc(Cl)c(Cl)c1F` [Embodiment A101], for which the “Blocking rate (%) @100 nM” value at NaV1.8 is recorded as 98.47%.

For the molecule `O=C(Nc1cc[n+]([O-])cc1)c1c(Oc2ccc(OC(F)(F)F)cc2)cnc(C(F)(F)F)c1Cl` [Embodiment A102], the “Blocking rate (%) @100 nM” value at NaV1.8 came out at 82.71%.

As to `Cc1cc(F)ccc1Oc1cc(C(F)(F)F)c(Cl)cc1C(=O)Nc1ccc[n+]([O-])c1` [Embodiment A103], the “Blocking rate (%) @100 nM” value on NaV1.8 was found to be 92.47%. Also, in data set [1] (setting [2]), the AUC(0-inf) is 2.76 µg·h/mL, the clearance amounted to 6.15 mL/min/kg, the half-life was 2.28 h and the Vd stood at 1.19 L/kg. Further, in data set [1] (setting [3]), the AUC(0-inf) worked out at 14 µg·h/mL, the Cmax amounted to 1710 ng/mL and the half-life is 2.47 h. In data set [1] (po), this molecule had a bioavailability of 50.7%.

For `Cc1cc(F)ccc1Oc1cc(C(F)(F)F)c(Cl)c(F)c1C(=O)Nc1ccc[n+]([O-])c1` [Embodiment A104], the “Blocking rate (%) @100 nM” value at NaV1.8 is 97.93%.

`COc1c(Cl)c(C(F)(F)F)cc(Oc2ccc(F)cc2C)c1C(=O)Nc1ccc[n+]([O-])c1` [Embodiment A105]: the “Blocking rate (%) @100 nM” value on NaV1.8 is 98.42%.

For `O=C(Nc1ccc[n+]([O-])c1)c1cc(Cl)c(C(F)(F)F)cc1Oc1ccc(F)cc1C1CC1` [Embodiment A106], half-maximal inhibition on NaV1.8 (IC50) required 3 nM.

Turning to `Cc1cc(F)ccc1Oc1cc(C(F)(F)F)c(Br)cc1C(=O)Nc1ccc[n+]([O-])c1` [Embodiment A107], the “Blocking rate (%) @100 nM” value on NaV1.8 was 95.60%.

Take `O=C(Nc1ccc[n+]([O-])c1)c1cc(Cl)c(C(F)(F)F)cc1Oc1ccc(F)cc1OC1CC1` [Embodiment A108]: the “Blocking rate (%) @100 nM” value at NaV1.8 was 96.92%.

In the case of `Cc1cc(F)ccc1Oc1cc(C(F)(F)F)c(Br)c(F)c1C(=O)Nc1ccc[n+]([O-])c1` [Embodiment A110], the “Blocking rate (%) @100 nM” value on NaV1.8 came to 98.75%.

For `O=C(Nc1ccc[n+]([O-])c1)c1c(Oc2ccc(F)cc2C2CC2)cc(C(F)(F)F)c(Cl)c1F` [Embodiment A111], the “Blocking rate (%) @100 nM” value on NaV1.8 came to 99.42%.

These data come from patent US20230303495A9, “PYRIDINE OXYNITRIDE, PREPARATION METHOD THEREFOR AND USE THEREOF” (Orion Corporation, priority 2019, published 2023).
